Consider 19 compounds from patent US10344025B2, “GLS1 inhibitors for treating disease” (Board of Regents, The University of Texas System, priority 2014, dated 2019).

Like-named read-outs stand apart in the source and are kept apart here.

In assay [1] the target is purified recombinant human GAC (GLS1) (Homo sapiens (Human), UniProt O94925). As to the kind of experiment: GLS1 Enzymatic Activity Assay (dual-coupled enzymatic assay, resorufin/Amplex UltraRed readout).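 Also: glutamate from GAC coupled via glutamate oxidase and peroxidase to resorufin, read as fluorescence (ex 530, em 590 nm) kinetically or at 20 min, four-parameter logistic IC50 fit.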 In kind it is biochemical.
The subject of a further assay is A549 cells. As to the kind of experiment: Proliferation Assay (A549 viability, Cell Titer Fluor, 72 hours). The format is cell-based. An outline of the steps:
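Cell Titer Fluor fluorescence after 72 h compound treatment (0.5% DMSO, 37 °C, 5% CO2) of A549 cells plated 24 h earlier at 1000/well. Four-parameter logistic fitting gave IC50.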

Sequence of purified recombinant human GAC (GLS1) (O94925 other isoform, or with tags, fused parts or gaps): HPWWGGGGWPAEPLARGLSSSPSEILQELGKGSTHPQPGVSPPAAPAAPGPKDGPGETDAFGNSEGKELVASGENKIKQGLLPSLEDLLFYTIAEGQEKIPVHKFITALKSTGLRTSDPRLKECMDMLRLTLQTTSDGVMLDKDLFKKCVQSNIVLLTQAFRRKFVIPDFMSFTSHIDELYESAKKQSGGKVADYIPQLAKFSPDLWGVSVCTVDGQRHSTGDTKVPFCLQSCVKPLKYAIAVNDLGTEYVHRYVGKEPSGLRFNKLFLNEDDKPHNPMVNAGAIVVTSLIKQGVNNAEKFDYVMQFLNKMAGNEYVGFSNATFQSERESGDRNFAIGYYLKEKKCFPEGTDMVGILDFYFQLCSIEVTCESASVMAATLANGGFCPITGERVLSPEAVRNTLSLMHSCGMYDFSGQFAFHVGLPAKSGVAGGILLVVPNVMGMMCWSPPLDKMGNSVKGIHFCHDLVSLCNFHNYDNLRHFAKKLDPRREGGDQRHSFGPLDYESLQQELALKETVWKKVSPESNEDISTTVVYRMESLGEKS

In the case of `COc1ncccc1CNC(=O)c1cn(CC(F)CCc2nnc(NC(=O)Cc3cc(OC(F)(F)F)ccc3F)s2)nn1` (centres unmarked) [Example 223, 1-(2-fluoro-4-(5-(2-(2-fluoro-5-(trifluoromethoxy)phenyl)acetamido)-1,3,4-thiadiazol-2-yl)butyl)-N-((2-methoxypyridin-3-yl)methyl)-1H-1,2,3-triazole-4-carboxamide], in assay [1], the IC50 is less than 100 nM. In the assay with A549 cells (Homo sapiens, A549, 72 h), this compound displayed an EC50 of less than 100 nM.
With `COC(=O)Nc1ccc(CCCCn2cc(C(=O)NCc3cc(C(F)(F)F)ccn3)nn2)nn1` [Example 224, methyl (6-(4-(4-(((4-(trifluoromethyl)pyridin-2-yl)methyl)carbamoyl)-1H-1,2,3-triazol-1-yl)butyl)pyridazin-3-yl)carbamate], the IC50 in assay [1] is 100 to 500 nM. The same compound came in with an EC50 with A549 cells (Homo sapiens, A549, 72 h) of 100 to 500 nM.
With `CNC(=O)c1cn(CC(F)CCc2nnc(NC(=O)Cc3cc(C(F)(F)F)ccn3)s2)nn1` (centres unmarked) [Example 226, 1-(2-fluoro-4-(5-(2-(4-(trifluoromethyl)pyridin-2-yl)acetamido)-1,3,4-thiadiazol-2-yl)butyl)-N-methyl-1H-1,2,3-triazole-4-carboxamide], the IC50 in assay [1] was less than 100 nM. Further, in the assay on A549 cells (Homo sapiens, A549, 72 h), the EC50 was less than 100 nM.
As to `CNC(=O)c1cn(CCCCc2ccc(NC(=O)CN3CCN(c4cccc(OC(F)(F)F)c4)CC3=O)nn2)nn1` [Example 227, N-methyl-1-(4-(6-(2-(2-oxo-4-(3-(trifluoromethoxy)phenyl)piperazin-1-yl)acetamido)pyridazin-3-yl)butyl)-1H-1,2,3-triazole-4-carboxamide], the IC50 in assay [1] was less than 100 nM. For the same compound, the EC50 with A549 cells (Homo sapiens, A549, 72 h) was less than 100 nM.
For the compound `CNC(=O)c1cn(CCCCc2ccc(NC(=O)CN3CCN(c4cccc(OC(F)(F)F)c4)CC3)nn2)nn1` [Example 228, N-methyl-1-(4-(6-(2-(4-(3-(trifluoromethoxy)phenyl)piperazin-1-yl)acetamido)pyridazin-3-yl)butyl)-1H-1,2,3-triazole-4-carboxamide], in assay [1], the IC50 was less than 100 nM. The compound also showed an EC50 in the assay on A549 cells (Homo sapiens, A549, 72 h) of less than 100 nM.
Consider `CNC(=O)c1nnc(CCCCc2ccc(NC(=O)Cc3cc(C(F)(F)F)ccn3)nn2)s1` [Example 229, N-methyl-5-(4-(6-(2-(4-(trifluoromethyl)pyridin-2-yl)acetamido)pyridazin-3-yl)butyl)-1,3,4-thiadiazole-2-carboxamide], for which the IC50 in assay [1] is less than 100 nM. In the assay on A549 cells (Homo sapiens, A549, 72 h), this compound yielded an EC50 of less than 100 nM.
Take `CNC(=O)c1cn(CCCCc2ccc(NC(=O)CN3CCN(c4ccc(OC(F)(F)F)cc4)CC3)nn2)nn1` [Example 232, N-methyl-1-(4-(6-(2-(4-(4-(trifluoromethoxy)phenyl)piperazin-1-yl)acetamido)pyridazin-3-yl)butyl)-1H-1,2,3-triazole-4-carboxamide]: the IC50 in assay [1] is less than 100 nM. Besides, the EC50 in the assay on A549 cells (Homo sapiens, A549, 72 h) was less than 100 nM.
Turning to `O=C(NCc1ccccn1)c1cn(CC(F)CCc2nnc(C(=O)NCc3cc(C(F)(F)F)ccn3)s2)nn1` (centres unmarked) [Example 234, 5-(3-fluoro-4-(4-((pyridin-2-ylmethyl)carbamoyl)-1H-1,2,3-triazol-1-yl)butyl)-N-((4-(trifluoromethyl)pyridin-2-yl)methyl)-1,3,4-thiadiazole-2-carboxamide], the IC50 in assay [1] is less than 100 nM. The compound also displayed an EC50 in the assay on A549 cells (Homo sapiens, A549, 72 h) of 100 to 500 nM.
With `O=C(NCc1cc(C(F)(F)F)ccn1)c1cn(CC(F)CCc2nnc(C(=O)NCc3ccccn3)s2)nn1` (centres unmarked) [Example 235, 5-(3-fluoro-4-(4-(((4-(trifluoromethyl)pyridin-2-yl)methyl)carbamoyl)-1H-1,2,3-triazol-1-yl)butyl)-N-(pyridin-2-ylmethyl)-1,3,4-thiadiazole-2-carboxamide], the IC50 in assay [1] is less than 100 nM. For the same compound, the EC50 in the assay on A549 cells (Homo sapiens, A549, 72 h) fell in the range of 100 to 500 nM.
For `CC(=O)Nc1ccc(CCC(F)Cn2cc(C(=O)NCc3cc(C(F)(F)F)ccn3)nn2)nn1` (centres unmarked) [Example 236, 1-(4-(6-acetamidopyridazin-3-yl)-2-fluorobutyl)-N-((4-(trifluoromethyl)pyridin-2-yl)methyl)-1H-1,2,3-triazole-4-carboxamide] the same measures were less than 100 nM and less than 100 nM.
For `CNC(=O)c1cn(CCCCc2ccc(NC(=O)Cc3cccc(N(C)C)c3)nn2)nn1` [Example 237, 1-(4-(6-(2-(3-(dimethylamino)phenyl)acetamido)pyridazin-3-yl)butyl)-N-methyl-1H-1,2,3-triazole-4-carboxamide], the IC50 in assay [1] was less than 100 nM. The EC50 in the assay with A549 cells (Homo sapiens, A549, 72 h) lay within 100 to 500 nM.
For `O=C(Cc1ccccn1)Nc1nnc(CC[C@H](F)Cn2cc(C(=O)NCc3cc(C(F)(F)F)ccn3)nn2)s1` [Example 238, (S)-1-(2-fluoro-4-(5-(2-(pyridin-2-yl)acetamido)-1,3,4-thiadiazol-2-yl)butyl)-N-((4-(trifluoromethyl)pyridin-2-yl)methyl)-1H-1,2,3-triazole-4-carboxamide] the same measures were less than 100 nM and 100 to 500 nM.
In the case of `CNC(=O)c1cn(C[C@@H](F)CCc2nnc(NC(=O)Cc3cccc(OC(F)(F)F)c3)s2)nn1` [Example 239, (S)-1-(2-fluoro-4-(5-(2-(3-(trifluoromethoxy)phenyl)acetamido)-1,3,4-thiadiazol-2-yl)butyl)-N-methyl-1H-1,2,3-triazole-4-carboxamide], in assay [1], the IC50 was less than 100 nM. In the assay with A549 cells, the EC50 was in the range of 100 to 500 nM.
`CNC(=O)c1cn(C[C@H](F)CCc2nnc(NC(=O)Cc3cccc(OC(F)(F)F)c3)s2)nn1` [Example 240, (R)-1-(2-fluoro-4-(5-(2-(3-(trifluoromethoxy)phenyl)acetamido)-1,3,4-thiadiazol-2-yl)butyl)-N-methyl-1H-1,2,3-triazole-4-carboxamide]: the IC50 in assay [1] is less than 100 nM. In the assay on A549 cells (Homo sapiens, A549, 72 h), this compound had an EC50 of less than 100 nM.
Consider `CNC(=O)c1cn(CC(F)CCc2ccc(NC(=O)CN3CCN(c4cccc(OC(F)(F)F)c4)CC3=O)nn2)nn1` (centres unmarked) [Example 241, 1-(2-fluoro-4-(6-(2-(2-oxo-4-(3-(trifluoromethoxy)phenyl)piperazin-1-yl)acetamido)pyridazin-3-yl)butyl)-N-methyl-1H-1,2,3-triazole-4-carboxamide], for which the IC50 in assay [1] is less than 100 nM. Besides, the EC50 in the assay on A549 cells (Homo sapiens, A549, 72 h) was less than 100 nM.
Consider `CNC(=O)c1cn(CCCCc2ccc(NC(=O)OC3CCCCC3)nn2)nn1` [Example 243, cyclohexyl (6-(4-(4-(methylcarbamoyl)-1H-1,2,3-triazol-1-yl)butyl)pyridazin-3-yl)carbamate], for which the IC50 in assay [1] was 100 to 500 nM. Further, in the assay on A549 cells (Homo sapiens), the EC50 was in the range of 100 to 500 nM.
Take `CNC(=O)c1cn(CC(F)CCc2ccc(NC(=O)Cc3ccccc3)nn2)nn1` (centres unmarked) [Example 244, 1-(2-fluoro-4-(6-(2-phenylacetamido)pyridazin-3-yl)butyl)-N-methyl-1H-1,2,3-triazole-4-carboxamide]: the IC50 in assay [1] is less than 100 nM. For the same compound, in the assay on A549 cells (Homo sapiens, A549, 72 h), the EC50 is less than 100 nM.
As for `CNC(=O)c1cn(CC(F)CCc2ccc(NC(=O)Cc3cncc(OC4CC(F)(F)C4)c3)nn2)nn1` (centres unmarked) [Example 245, 1-(4-(6-(2-(5-(3,3-difluorocyclobutoxy)pyridin-3-yl)acetamido)pyridazin-3-yl)-2-fluorobutyl)-N-methyl-1H-1,2,3-triazole-4-carboxamide], the IC50 in assay [1] was less than 100 nM. This compound also showed an EC50 in the assay on A549 cells (Homo sapiens, A549, 72 h) of less than 100 nM.
In the case of `O=C(Cc1cc(-c2cccc(OC(F)(F)F)c2)ccn1)Nc1ccc(CCCCn2cc(C(=O)NCCO)nn2)nn1` [Example 246, N-(2-hydroxyethyl)-1-(4-(6-(2-(4-(3-(trifluoromethoxy)phenyl)pyridin-2-yl)acetamido)pyridazin-3-yl)butyl)-1H-1,2,3-triazole-4-carboxamide], the IC50 in assay [1] was less than 100 nM. In the assay on A549 cells (Homo sapiens, A549, 72 h), this compound came in with an EC50 of less than 100 nM.
